Data as given in ChEMBL document CHEMBL1158110, “Chaetopyranin, a benzaldehyde derivative, and other related metabolites from Chaetomium globosum, an endophytic fungus derived from the marine red alga Polysiphonia urceolata” (J Nat Prod, 2006).
Values after ≈ are worked out from the molar mass of the structure shown.

Experiments:
[1] = system: A549; experiment: Cytotoxicity against human A549 cells; type: functional, cell-based
[2] = system: Radical scavenging activity; experiment: Antioxidant activity assessed as DPPH free radical scavenging activity; type: functional
[3] = system: SMMC-7721; experiment: Cytotoxicity against human SMMC7721 cells; type: functional, cell-based
[4] = system: HMEC; experiment: Cytotoxicity against HMEC; type: cell-based; conditions: Homo sapiens

Row | Structure (SMILES) | IC50 [1] [µg/mL] | IC50 [2] [µg/mL] | IC50 [3] [µg/mL] | IC50 [4] [µg/mL]
1 | CC(C)=CCc1cc2c(c(C=O)c1O)CCC(/C=C/C(C)O)O2 (configuration not stated) [CHAETOPYRANIN] | 39.1 (≈ 124 µM) | 35 (≈ 111 µM) | 28.5 (≈ 90.1 µM) | 15.4 (≈ 48.7 µM)
2 | CCC/C=C/c1cc2c(C=O)c(O)c(CC=C(C)C)cc2o1 |  | 88 (≈ 295 µM) |  | 
3 | COc1cc(O)c2c(c1)C(=O)c1c(O)c(C)cc(O)c1C2=O [PARIETIN] |  | 62 (≈ 206 µM) |  | 
4 | C/C=C/CCCCc1c(O)cc(CC=C(C)C)c(O)c1C=O [ISOTETRAHYDROAUROGLAUCIN] |  | 26 (≈ 86 µM) |  | 
